What all share (test): stopped-flow CO2 hydration assay
Assay type in all cases: biochemical

One experiment concerns the target T1, Can2-CA (Cryptococcus neoformans, UniProt Q3I4V7).
T1 construct: recombinant beta-CA, produced as reported earlier; dimer in the docking model
T1 sequence (Q3I4V7 1-239): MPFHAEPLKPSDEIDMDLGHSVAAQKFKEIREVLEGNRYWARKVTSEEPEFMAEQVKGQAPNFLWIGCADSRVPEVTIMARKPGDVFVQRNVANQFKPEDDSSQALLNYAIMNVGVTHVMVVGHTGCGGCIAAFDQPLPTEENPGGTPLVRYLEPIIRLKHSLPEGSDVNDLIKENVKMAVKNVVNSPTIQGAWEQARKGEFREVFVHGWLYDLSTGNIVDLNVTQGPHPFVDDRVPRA
Conditions: read-out: Inhibition constant, Ki (μM) / β-family / Can2.

The next experiment deals with T2, VchCA (Vibrio cholerae, UniProt A0A086SLX8).
T2 construct: gene can

The next experiment concerns the target T3, SspCA (Sulfurihydrogenibium sp. YO3AOP1, UniProt B2V8E3).
T3 construct: recombinant bacterial alpha-CA, produced as reported earlier
T3 sequence (B2V8E3 21-246): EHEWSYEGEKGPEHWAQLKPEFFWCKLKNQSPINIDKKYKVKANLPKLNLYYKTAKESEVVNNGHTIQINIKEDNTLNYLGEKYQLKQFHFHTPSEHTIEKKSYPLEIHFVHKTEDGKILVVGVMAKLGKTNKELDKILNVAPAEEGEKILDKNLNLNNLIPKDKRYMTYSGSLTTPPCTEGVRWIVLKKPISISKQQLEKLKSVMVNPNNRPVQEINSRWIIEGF
Conditions: read-out: Inhibition constant, Ki (μM) / α-family / Ssp.

The target of a further experiment is T4, MgCA (Malassezia globosa, UniProt A8Q1N3).
T4 construct: gene MGL_1814
T4 sequence (A8Q1N3 1-241): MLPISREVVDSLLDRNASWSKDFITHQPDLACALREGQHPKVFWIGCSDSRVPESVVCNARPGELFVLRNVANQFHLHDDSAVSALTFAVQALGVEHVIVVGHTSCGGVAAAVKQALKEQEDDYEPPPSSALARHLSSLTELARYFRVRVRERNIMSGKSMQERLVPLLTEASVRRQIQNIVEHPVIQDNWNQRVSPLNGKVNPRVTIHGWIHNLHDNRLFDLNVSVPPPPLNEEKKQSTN
Conditions: read-out: Inhibition constant, Ki (μM) / β-family / Mg.

The target of another experiment is T5, hCA IX (Homo sapiens, UniProt Q16790).
T5 construct: gene CA9
Conditions: read-out: Inhibition constant, Ki (μM) / α-family / CAI.

T2 sequence (A0A086SLX8 1-222): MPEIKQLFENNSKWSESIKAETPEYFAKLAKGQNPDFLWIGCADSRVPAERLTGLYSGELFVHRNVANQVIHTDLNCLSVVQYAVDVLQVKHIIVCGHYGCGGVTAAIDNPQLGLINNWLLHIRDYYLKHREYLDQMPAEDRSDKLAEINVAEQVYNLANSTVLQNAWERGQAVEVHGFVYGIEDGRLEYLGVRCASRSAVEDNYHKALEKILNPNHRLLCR

For `NC(=O)c1ccc[n+]([O-])c1N` [compound 5, 5], the Ki at Can2-CA turned out to be 1.7 µM; on VchCA, 2.1 µM.

As to `CCc1cc(C(C)C)c(C(N)=O)c(N)[n+]1[O-]` [compound 13, 13], the Ki on VchCA was 2.8 µM.

For `CCc1cc(C(C)C)[n+]([O-])c(N)c1C(N)=O` [compound 16, 16], at SspCA, the Ki stood at 58.5 µM.

As to `CCc1cc(C)[n+]([O-])c(N)c1C(N)=O` [compound 19, 19], the Ki at SspCA came out at 42.2 µM.

`CC(C)c1cc(-c2ccccc2)c(C(N)=O)c(N)[n+]1[O-]` [compound 20, 20]: the Ki on MgCA came to 46.2 µM.

`CCc1cc(-c2ccccc2)c(C(N)=O)c(N)[n+]1[O-]` [compound 21, 21] showed a Ki at VchCA of 2.2 µM.

Take `NC(=O)c1ncc[n+]([O-])c1N` [compound 30, 30]: the Ki on hCA IX is above 100 µM; on MgCA, 6.7 µM; at Can2-CA, 1.1 µM.

On to `Cc1cnc(C(N)=O)c[n+]1[O-]` [compound 31, 31], for which the Ki on Can2-CA is 1.3 µM.

These data come from paper PMC6179086 (Journal of Enzyme Inhibition and Medicinal Chemistry, 2018).
